# Data from patent US20250152599A1 (priority 2020, published 2025).
# Where two headings read alike, the source gives them in different places.
# How the values were obtained:
# Vero cells = conditions: for CC10: African green monkey
# [1] = test system: novel coronavirus (SARS-CoV-2); experiment: microbe, parasite or virus in culture; assay type: cell-based; conditions: for EC50: Severe acute respiratory syndrome coronavirus 2, Vero, read-out: EC50 for inhibiting the novel coronavirus
# HCoV 229E [2] = experiment: microbe, parasite or virus in culture; conditions: unidentified human coronavirus
# PI4KIIIα = PI4KIIIα (Homo sapiens, UniProt P42356); conditions: read-out: IC50 of inhibitory effect on PI4KIIIα; cited from earlier work
# PI4KIIIα, sequence (P42356 whole entry): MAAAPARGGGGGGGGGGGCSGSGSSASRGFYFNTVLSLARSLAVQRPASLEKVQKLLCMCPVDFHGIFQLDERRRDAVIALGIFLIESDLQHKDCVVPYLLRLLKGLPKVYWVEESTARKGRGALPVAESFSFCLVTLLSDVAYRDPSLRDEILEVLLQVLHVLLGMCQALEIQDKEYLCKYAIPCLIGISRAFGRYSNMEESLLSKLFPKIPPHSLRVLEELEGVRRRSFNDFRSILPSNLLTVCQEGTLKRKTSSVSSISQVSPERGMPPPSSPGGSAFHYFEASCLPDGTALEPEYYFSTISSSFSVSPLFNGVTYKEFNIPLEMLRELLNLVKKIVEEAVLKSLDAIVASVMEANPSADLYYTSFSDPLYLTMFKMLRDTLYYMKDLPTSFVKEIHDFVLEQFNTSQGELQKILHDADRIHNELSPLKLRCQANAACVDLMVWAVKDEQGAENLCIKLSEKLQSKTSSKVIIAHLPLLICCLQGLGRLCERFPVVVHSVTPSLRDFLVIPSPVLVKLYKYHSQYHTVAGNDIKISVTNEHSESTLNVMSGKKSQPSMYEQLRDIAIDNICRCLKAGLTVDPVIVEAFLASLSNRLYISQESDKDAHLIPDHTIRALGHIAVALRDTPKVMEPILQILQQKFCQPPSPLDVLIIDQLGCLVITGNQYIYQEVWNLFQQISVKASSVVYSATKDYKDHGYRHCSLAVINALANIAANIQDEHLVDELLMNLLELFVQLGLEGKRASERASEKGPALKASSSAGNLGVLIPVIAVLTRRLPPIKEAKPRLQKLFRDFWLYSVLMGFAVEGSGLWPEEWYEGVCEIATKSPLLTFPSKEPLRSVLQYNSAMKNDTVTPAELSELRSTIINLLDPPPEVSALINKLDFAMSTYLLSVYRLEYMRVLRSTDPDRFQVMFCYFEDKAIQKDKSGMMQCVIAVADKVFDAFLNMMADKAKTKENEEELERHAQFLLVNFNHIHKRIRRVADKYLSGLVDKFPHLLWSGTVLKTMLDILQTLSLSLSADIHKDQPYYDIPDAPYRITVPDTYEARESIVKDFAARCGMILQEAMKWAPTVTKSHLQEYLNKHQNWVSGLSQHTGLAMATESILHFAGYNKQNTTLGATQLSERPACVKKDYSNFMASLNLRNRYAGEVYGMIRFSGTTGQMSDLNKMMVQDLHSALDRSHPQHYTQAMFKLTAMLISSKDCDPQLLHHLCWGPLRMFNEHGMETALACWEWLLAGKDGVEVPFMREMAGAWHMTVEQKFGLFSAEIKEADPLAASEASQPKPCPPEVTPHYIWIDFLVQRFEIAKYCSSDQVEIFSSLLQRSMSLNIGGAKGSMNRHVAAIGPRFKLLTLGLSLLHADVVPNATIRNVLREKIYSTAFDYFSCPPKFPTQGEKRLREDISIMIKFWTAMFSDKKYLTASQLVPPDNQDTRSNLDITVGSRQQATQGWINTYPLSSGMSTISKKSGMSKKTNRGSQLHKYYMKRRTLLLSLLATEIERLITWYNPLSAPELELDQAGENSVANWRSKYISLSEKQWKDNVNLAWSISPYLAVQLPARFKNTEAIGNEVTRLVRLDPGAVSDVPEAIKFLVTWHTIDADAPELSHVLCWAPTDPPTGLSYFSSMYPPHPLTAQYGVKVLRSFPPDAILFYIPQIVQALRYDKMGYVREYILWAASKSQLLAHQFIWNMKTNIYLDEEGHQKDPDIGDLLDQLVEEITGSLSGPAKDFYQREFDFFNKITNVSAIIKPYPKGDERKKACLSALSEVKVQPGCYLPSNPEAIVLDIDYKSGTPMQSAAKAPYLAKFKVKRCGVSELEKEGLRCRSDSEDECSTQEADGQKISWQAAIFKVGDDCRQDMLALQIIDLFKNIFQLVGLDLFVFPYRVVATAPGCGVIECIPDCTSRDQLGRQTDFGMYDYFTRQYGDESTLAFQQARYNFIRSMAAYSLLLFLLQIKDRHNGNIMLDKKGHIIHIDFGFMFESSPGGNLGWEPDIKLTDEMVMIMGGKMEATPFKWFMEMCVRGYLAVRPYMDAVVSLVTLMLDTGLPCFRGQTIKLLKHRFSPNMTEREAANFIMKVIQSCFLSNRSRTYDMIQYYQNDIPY
# HCoV 229E [3] = test system: HCoV 229E
# in vitro [4] = conditions: human
# in vitro [5] = experiment: in vitro
# novel coronavirus = experiment: Inhibitory effect of PI0101 on the novel coronavirus, 96-well plate, 76 hours; assay type: cell-based, SARS-CoV-2; conditions: Severe acute respiratory syndrome coronavirus 2, novel coronavirus 100 TCID50/well
# in vitro [6] = conditions: African green monkey
# MRC5 cells = conditions: human
smiles,measurement,setting,value
CCN(CC)CCCC(C)Nc1ccnc2cc(Cl)ccc12 (stereo not drawn) [Chloroquine phosphate],CC10,Vero cells,120 µM
same,EC50,[1],50 µM
"COc1ccc2c(O[C@@H]3C[C@H]4C(=O)N[C@]5(C(=O)NS(=O)(=O)C6CC6)C[C@H]5/C=C\CCCCN(C)C(=O)[C@@H]4C3)cc(-c3nc(C(C)C)cs3)nc2c1C [PI0101, Simeprevir]",EC50,"HCoV 229E [2]; MRC5, 72 h",3.41 µM
same,IC50,PI4KIIIα,0.2 µM
same,SI (CC50/EC50),HCoV 229E [3]; the second test,2.48
same,CC50,in vitro [4],8.46 µM
same,CC50,in vitro [5],> 10 µM
same,EC50,novel coronavirus,3.85 µM
CC(=O)Nc1nc(C)c(-c2ccc(Cl)c(S(=O)(=O)NCCO)c2)s1 [PIK-93],toxic effect on Vero cells,Vero cells,no significant toxic effect
same,inhibitory effect on the novel coronavirus,[1],no significant inhibitory effect
CCC(CC)COC(=O)[C@H](C)N[P@](=O)(OC[C@H]1O[C@@](C#N)(c2ccc3c(N)ncnn23)[C@H](O)[C@@H]1O)Oc1ccccc1 [Remdesivir],EC50,HCoV 229E [2]; MRC5,0.0264 µM
same,CC50,in vitro [6],208 µM
same,viability,in vitro [6],> 90%
same,SI (CC50/EC50),HCoV 229E [3]; the first test,>3785.01
same,SI (CC50/EC50),HCoV 229E [3]; the second test,2338.60
same,CC50,MRC5 cells,30.7 µM
same,CC10,Vero cells,55 µM
same,EC50,[1],0.52 µM
O=[As]c1ccc(NC(=O)CCc2ccccc2)cc1 (stereo not drawn) [YL-05],EC50,"HCoV 229E [2]; MRC5, 72 h",> 0.2 µM
same,CC50,in vitro [4],> 0.8 µM
O=[As]c1ccc(NS(=O)(=O)c2ccc(F)cc2)cc1 (stereo not drawn) [YL-09],CC50,MRC5 cells,13.9 µM
COc1ccc(S(=O)(=O)Nc2ccc([As]=O)cc2)cc1 (stereo not drawn) [YL-10],EC50,HCoV 229E [3],3.95 µM
same,SI (CC50/EC50),HCoV 229E [3],3.55
same,CC50,MRC5 cells,14 µM
O=[As]c1ccc(NS(=O)(=O)c2ccc(C(F)(F)F)cc2)cc1 (stereo not drawn) [YL-11],EC50,HCoV 229E [3],2.1 µM
same,SI (CC50/EC50),HCoV 229E [3],3.03
same,CC50,MRC5 cells,6.37 µM
